Data taken from ChEMBL document CHEMBL1143962, “Protective effect of irisolidone, a metabolite of kakkalide, against hydrogen peroxide induced cell damage via antioxidant effect” (2008).
Calls of active or inactive are those of the source. No cut-off for these calls is given here.

Legend:
V79-4 [1] = assay: ROS scavenging activity in chinese hamster V79-4 cells at 50 ug/mL after 30 mins by DCF-DA method; format: functional, Cricetulus griseus
V79-4 [2] = assay: ROS scavenging activity in chinese hamster V79-4 cells at 10 ug/mL after 30 mins by DCF-DA method; format: functional, Cricetulus griseus
V79-4 [3] = assay: Effect on hydrogen peroxide-induced DNA damage in chinese hamster V79-4 cells assessed as decrease in phospho H2A.X expression; format: functional, cell-based; settings: Cricetulus griseus
V79-4 [4] = assay: ROS scavenging activity in chinese hamster V79-4 cells at 1 ug/mL after 30 mins by DCF-DA method; format: functional, Cricetulus griseus
[5] = DPPH radical scavenging activity at 1 ug/ml after 30 mins; format: functional
V79-4 [6] = assay: Protection against hydrogen peroxide-induced apoptosis in chinese hamster V79-4 cells assessed as cell survival by MTT assay; format: functional, Cricetulus griseus
V79-4 [7] = assay: Decrease in hydrogen peroxide-induced 8-OHdG in chinese hamster V79-4 cells at 50 ug/mL; format: functional, Cricetulus griseus
[8] = DPPH radical scavenging activity at 50 ug/ml after 30 mins; format: functional
[9] = DPPH radical scavenging activity at 10 ug/ml after 30 mins; format: functional
V79-4 [10] = assay: Decrease in hydrogen peroxide-induced 8-OHdG in chinese hamster V79-4 cells at 10 ug/mL; format: functional, Cricetulus griseus
V79-4 [11] = assay: Inhibition of hydrogen peroxide-induced lipid peroxidation in chinese hamster V79-4 cells assessed as TBARS per mg of protein at 50 ug/mL; format: functional, Cricetulus griseus
[12] = target: Transcription factor Jun (Homo sapiens) (UniProt P05412); assay: Increase in transcriptional activity of AP1 transfected in V79-4 cells by luciferase assay; format: cell-based
V79-4 [13] = assay: Decrease in hydrogen peroxide-induced 8-OHdG in chinese hamster V79-4 cells at 1 ug/mL; format: functional, Cricetulus griseus
V79-4 [14] = assay: Protective effect on hydrogen peroxide-induced cell damage in chinese hamster V79-4 cells assessed as decrease in DNA fragmentation level at 50 ug/ml by ELISA; format: functional, cell-based; settings: Cricetulus griseus
V79-4 [15] = assay: Protective effect on hydrogen peroxide-induced cell damage in chinese hamster V79-4 cells assessed as decrease in apoptotic sub-G1 DNA content at 50 ug/ml by flow cytometry; format: functional, Cricetulus griseus; parameters: scale not given: the % may be the effect or the level left
V79-4 [16] = assay: Activation of ERK in chinese hamster V79-4 cells assessed as phosphorylated ERK within 6 hrs; format: cell-based; settings: Cricetulus griseus
V79-4 [17] = assay: Protective effect on hydrogen peroxide-induced damage in chinese hamster V79-4 cells in presence of U0126 by MTT assay; format: functional, cell-based; settings: Cricetulus griseus
V79-4 [18] = assay: Inhibition of hydrogen peroxide-induced lipid peroxidation in chinese hamster V79-4 cells assessed as TBARS per mg of protein at 1 ug/mL; format: functional, Cricetulus griseus
V79-4 [19] = assay: Inhibition of hydrogen peroxide-induced lipid peroxidation in chinese hamster V79-4 cells assessed as TBARS per mg of protein at 10 ug/mL; format: functional, Cricetulus griseus

Chain of Transcription factor Jun (Homo sapiens) (P05412 whole entry): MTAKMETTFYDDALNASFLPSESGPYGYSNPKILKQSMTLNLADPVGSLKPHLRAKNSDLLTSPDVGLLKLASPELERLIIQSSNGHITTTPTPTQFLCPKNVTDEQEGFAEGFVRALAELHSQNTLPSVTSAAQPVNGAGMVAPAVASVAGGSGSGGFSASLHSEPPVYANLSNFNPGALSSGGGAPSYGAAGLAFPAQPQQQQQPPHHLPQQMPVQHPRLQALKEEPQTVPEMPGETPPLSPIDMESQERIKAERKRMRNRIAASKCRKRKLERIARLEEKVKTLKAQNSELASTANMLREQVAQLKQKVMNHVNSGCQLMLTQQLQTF

**Q.** For `COc1ccc(-c2coc3cc(O)c(OC)c(O)c3c2=O)cc1` [IRISOLIDONE], which Activity (V79-4 [1]) is on record?
**A.** Its Activity is 66%.

**Q.** And the Activity (V79-4 [2])?
**A.** The Activity was 58%.

**Q.** What about the Activity (V79-4 [3]) of the same compound?
**A.** The Activity was “Active”.

**Q.** And the Activity (V79-4 [4])?
**A.** The Activity was 41%.

**Q.** And the Activity [5]?
**A.** The Activity was 10%.

**Q.** And the Survival (V79-4 [6])?
**A.** Its Survival is 48%.

**Q.** What about the Activity (V79-4 [7]) of the same compound?
**A.** Its Activity is 6409 pg/mL.

**Q.** What about the Activity [8] of the same compound?
**A.** Its Activity is 44%.

**Q.** What about the Activity [9] of the same compound?
**A.** Its Activity is 19%.

**Q.** And the Activity (V79-4 [10])?
**A.** Its Activity is 7956 pg/mL.

**Q.** What about the Activity (V79-4 [11]) of the same compound?
**A.** The Activity was 0.8 µmol.

**Q.** And the Activity [12]?
**A.** The Activity was “Active”.

**Q.** And the Activity (V79-4 [13])?
**A.** Its Activity is 9280 pg/mL.

**Q.** What about the Activity (V79-4 [14]) of the same compound?
**A.** The Activity was “Active”.

**Q.** What about the Activity (V79-4 [15]) of the same compound?
**A.** Its Activity is 36%.

**Q.** And the Activity (V79-4 [16])?
**A.** The Activity was “Active”.

**Q.** And the Activity (V79-4 [17])?
**A.** The Activity was “inactive”.

**Q.** And the Activity (V79-4 [18])?
**A.** The Activity was 1.2 µmol.

**Q.** What about the Activity (V79-4 [19]) of the same compound?
**A.** The Activity was 1 µmol.

**Q.** What does the source list for `COc1ccc(-c2coc3cc(O[C@@H]4O[C@H](COC5OC[C@@H](O)[C@H](O)[C@H]5O)[C@@H](O)[C@H](O)[C@H]4O)c(OC)c(O)c3c2=O)cc1` (stereo not given in full) [KAKKALIDE]?
**A.** Activity (V79-4 [1]): 51%; Activity (V79-4 [2]): 37%; Activity (V79-4 [4]): 29%; Activity [5]: 8%; Activity [8]: 28%; Activity [9]: 12%
